{
  "source": "ChEMBL document CHEMBL1123301",
  "about": "“Structure-activity study of 6-substituted 2-pyranones as inactivators of alpha-chymotrypsin” (J Med Chem, 1986)",
  "key": {"[1]": {"biological_target": "Chymotrypsinogen A (Bos taurus) (UniProt P00766)"}, "[2]": {"biological_target": "Chymotrypsinogen A (Bos taurus) (UniProt P00766)", "remark": "listed apart in the source"}, "[3]": {"biological_target": "Chymotrypsinogen A (Bos taurus) (UniProt P00766)", "remark": "listed apart in the source"}, "[4]": {"biological_target": "Chymotrypsinogen A (Bos taurus) (UniProt P00766)", "experiment": "Binding affinity towards alpha-chymotrypsin from bovine pancreas; The compound was too insoluble to obtain reliable data"}, "[5]": {"experiment": "Binding affinity towards alpha-chymotrypsin from bovine pancreas", "set-up": "species or system Bos taurus"}},
  "data": [
    {"smiles": "CCc1ccc(=O)oc1Cl", "values": [
      {"measurement": "K inact", "setting": "[1]", "result": 0.00551, "unit": "min⁻¹"}
    ]},
    {"smiles": "O=c1oc(Cl)ccc1-c1ccccc1", "values": [
      {"measurement": "K inact", "setting": "[2]", "result": "No inactivation"}
    ]},
    {"smiles": "O=c1ccc(-c2ccccc2)c(Cl)o1", "values": [
      {"measurement": "K inact", "setting": "[2]", "result": "No inactivation"}
    ]},
    {"smiles": "CCCCc1ccc(=O)oc1Cl", "values": [
      {"measurement": "K inact", "setting": "[1]", "result": 0.00217, "unit": "min⁻¹"}
    ]},
    {"smiles": "O=c1oc(Br)ccc1Cc1ccc2ccccc2c1", "values": [
      {"measurement": "kinact", "setting": "[3]", "result": 0.0239, "unit": "min⁻¹"},
      {"measurement": "Ki", "setting": "[4]", "result": "The compound was too insoluble to obtain reliable data"}
    ]},
    {"smiles": "O=c1ccc(-c2ccccc2)co1", "values": [
      {"measurement": "K inact", "setting": "[2]", "result": "No inactivation"}
    ]},
    {"smiles": "O=c1occcc1-c1ccccc1", "values": [
      {"measurement": "Ki", "setting": "[5]", "result": 160, "unit": "µM"},
      {"measurement": "K inact", "setting": "[2]", "result": "No inactivation"}
    ]}
  ]
}
